Reference: US10272095B2 (GlaxoSmithKline Intellectual Property Development Limited, priority 2015, dated 2019)
Where a name gives a salt, the structure may show the parent alone. Read-outs that look alike come from different tables or passages of the source.

Test system: NQO1 specific enzyme activity in BEAS-2B cells
Test: BEAS-2B NQO1 MTT assay
Format: cell-based
Excerpt: NAD(P)H:quinone oxidoreductase 1 (NQO1), also called DT diaphorase, is a homodimeric FAD-containing enzyme that catalyzes obligatory NAD(P)H-dependent two-electron reductions of quinones and protects cells against the toxic and neoplastic effects of free radicals and reactive oxygen species arising from one-electron reductions. The transcription of NQO1 is finely regulated by NRF2, and thus NQO1 activity is a good marker for NRF2 activation. On day one, frozen BEAS-2B cells (ATCC) are thawed in a water bath, counted, and re-suspended at a concentration of 250,000 cells/mL. Fifty microliters of cells are plated in 384 well black clear-bottomed plates. Plates are incubated at 37° C., 5% CO2 overnight. On day two, plates are centrifuged and 50 nL of compound or controls are added to the cells. Plates are then incubated at 37° C., 5% CO2 for 48 hours. On day four, medium is aspirated from the plate and crude cell lysates are made by adding 13 uL of 1× Cell Signaling Technologies lysis buffer with 1 Complete, Mini, EDTA-free Protease Inhibitor Tablet (Roche) for each 10 mL of lysis buffer. After lysis plates are incubated for 20 minutes at room temperature. Two microliters of lysate are removed for use in Cell Titer Glo assay (Promega) and MTT cocktail is prepared (Prochaska et. al. 1998) for measurement of NQO1 activity. Fifty microliters of MTT cocktail is added to each well, plate is centrifuged, and analyzed on an Envision plate reader (Perkin Elmer) using Absorbance 570 nm label for 30 minutes. Product formation is measured kinetically and the pEC50 of NQO1 specific activity induction is calculated by plotting the change in absorbance (Delta OD/min) versus the log of compound concentration followed by 3-parameter fitting.
EC50s<1 nM (+++++), EC50s 10 nM-1 nM (++++), EC50s 10-100 nM (+++), EC50s 100 nM-1 uM (++), EC50s 1 uM-10 uM (+), EC50s>10 uM (−), or were not determined (ND).

[1] = Homo sapiens, BEAS-2B, 48 h, NQO1 specific enzyme activity induction in BEAS-2B cells, 48 hours, read-out: EC50

Compound	EC50 [1] [µM]	other results
Cc1c(C(c2ccc3c(c2)C(N2CCOc4ccccc4C2)CC3)C(C)(C)C(=O)O)ccc2c1nnn2C (stereo not shown) [Example 38, 3-(3-(2,3-Dihydrobenzo[f][1,4]oxazepin-4(5H)-yl)-2,3-dihydro-1H-inden-5-yl)-3-(1,4-dimethyl-1H-benzo[d][1,2,3]triazol-5-yl)-2,2-dimethylpropanoic Acid, Formic Acid Salt]	0.001 to 0.01	
Cc1c(C(CC(=O)O)c2ccc3c(c2)C2C(CCN2C(=O)C(C)c2ccccc2)C3)ccc2c1nnn2C (stereo not shown) [Example 8, 3-(1,4-Dimethyl-1H-1,2,3-benzotriazol-5-yl)-3-[1-(2-phenylpropanoyl)-1H,2H,3H,3aH,4H,8bH-indeno[1,2-b]pyrrol-7-yl]propanoic Acid]		EC50 (NQO1 specific enzyme activity induction in BEAS-2B cells, 48 hours, read-out: EC50): 1 to 10 µM
CCCCN(C)C(=O)N1CCC2Cc3ccc(C(CC(=O)O)c4ccc5c(nnn5C)c4C)cc3C21 (stereo not shown) [Example 14, 3-{1-[Butyl(methyl)carbamoyl]-1H,2H,3H,3aH,4H,8bH-indeno[1,2-b]pyrrol-7-yl}-3-(1,4-dimethyl-1H-1,2,3-benzotriazol-5-yl)propanoic Acid]	1 to 10	
Cc1c([C@@H](c2ccc3c(c2)[C@H](N2Cc4ccccc4OC(C)(C)C2)CC3)C(C)(C)C(=O)O)ccc2c1nnn2C (stereo in doubt) [Example 79, rel-(R)-3-(1,4-Dimethyl-1H-benzo[d][1,2,3]triazol-5-yl)-3-(rel-(R)-3(2,2-dimethyl-2,3-dihydrobenzo[f][1,4]oxazepin-4(5H)-yl)-2,3-dihydro-1H-inden-5-yl)-2,2-dimethylpropanoic acid]	0.001 to 0.01	
COc1cc(C(CC(=O)O)c2ccc3c(c2)C(N2Cc4cccnc4OC(C)(C)C2)CC3)cc2nnn(C)c12 (stereo not shown) [Example 55, 3-(3-(2,2-Dimethyl-2,3-dihydropyrido[3,2-f][1,4]oxazepin-4(5H)-yl)-2,3-dihydro-1H-inden-5-yl)-3-(7-methoxy-1-methyl-1H-benzo[d][1,2,3]triazol-5-yl)propanoic Acid, Formic Acid Salt]	0.1 to 1	
CC[C@@H]1CN([C@@H]2CCc3ccc([C@@H](c4ccc5c(nnn5C)c4C)C(C)(C)C(=O)O)cc32)Cc2cnccc2O1 (relative stereo) [Example 71, rel-(S)-3-(1,4-Dimethyl-1H-benzo[d][1,2,3]triazol-5-yl)-3-(rel-(R)-3-((R)-2-ethyl-2,3-dihydropyrido[3,4-f][1,4]oxazepin-4(5H)-yl)-2,3-dihydro-1H-inden-5-yl)-2,2-dimethylpropanoic acid]	0.001 to 0.01	
Cc1c([C@@H](CC(=O)O)c2ccc3c(c2)[C@H](N2Cc4ccccc4OC(C)(C)C2)CC3)ccc2c1nnn2C (single isomer, unassigned) [Example 41, 3-(1,4-Dimethyl-1H-benzo[d][1,2,3]triazol-5-yl)-3-(3-(2,2-dimethyl-2,3-dihydrobenzo[f][1,4]oxazepin-4(5H)-yl)-2,3-dihydro-1H-inden-5-yl)propanoic Acid, Formic Acid Salt]	0.001 to 0.01	
Cc1c([C@H](c2ccc3c(c2)[C@H](N2Cc4ccccc4OC(C)(C)C2)CC3)C(C)(C)C(=O)O)ccc2c1nnn2C (stereo in doubt) [Example 77, rel-(S)-3-(1,4-Dimethyl-1H-benzo[d][1,2,3]triazol-5-yl)-3-(rel-(R)-3-(2,2-dimethyl-2,3-dihydrobenzo[f][1,4]oxazepin-4(5H)-yl)-2,3-dihydro-1H-inden-5-yl)-2,2-dimethylpropanoic Acid]	< 0.001	
Cc1c(C(c2ccc3c(c2)C(N2Cc4ccccc4OC(C)(C)C2)CC3)C(C)(C)C(=O)O)ccc2c1nnn2C (stereo not shown) [Example 27, 3-(1,4-Dimethyl-1H-benzo[d][1,2,3]triazol-5-yl)-3-(3-(2,2-dimethyl-2,3-dihydrobenzo[f][1,4]oxazepin-4(5H)-yl)-2,3-dihydro-1H-inden-5-yl)-2,2-dimethylpropanoic Acid, 2 Formic Acid Salt]	< 0.001	EC50 (Homo sapiens, BEAS-2B, NQO1 specific enzyme activity in BEAS-2B cells, in some determinations, read-out: EC50 values in some determinations): < 0.00017 µM
CC[C@@H]1CN(C2CCc3ccc(C(c4ccc5c(nnn5C)c4C)C(C)(C)C(=O)O)cc32)Cc2ccccc2O1 (stereo partly drawn) [Example 30, 3-(1,4-Dimethyl-1H-benzo[d][1,2,3]triazol-5-yl)-3-(3-((R)-2-ethyl-2,3-dihydrobenzo[f][1,4]oxazepin-4(5H)-yl)-2,3-dihydro-1H-inden-5-yl)-2,2-dimethylpropanoic Acid, Formic Acid Salt]	0.001 to 0.01	
Cc1c([C@H](c2ccc3c(c2)[C@@H](N2Cc4ccccc4OC(C)(C)C2)CC3)C(C)(C)C(=O)O)ccc2c1nnn2C (stereo in doubt) [Example 78, rel-(S)-3-(1,4-Dimethyl-1H-benzo[d][1,2,3]triazol-5-yl)-3-(rel-(S)-3-(2,2-dimethyl-2,3-dihydrobenzo[f][1,4]oxazepin-4(5H)-yl)-2,3-dihydro-1H-inden-5-yl)-2,2-dimethylpropanoic acid]	0.001 to 0.01	
Cc1c([C@H](c2ccc3c(c2)[C@@H](N2Cc4ccncc4OC(C)(C)C2)CC3)C(C)(C)C(=O)O)ccc2c1nnn2C (racemic) [Example 69, rac-(R)-3-(1,4--1H-benzo[d][1,2,3]triazol-5-yl)-3-(rac-(R)-3-(2,2-dimethyl-2,3-dihydropyrido[4,3-f][1,4]oxazepin-4(5H)-yl)-2,3-dihydro-1H-inden-5-yl)-2,2-dimethylpropanoic acid, Trifluoroacetic acid salt]	< 0.001	
CC[C@@H]1CN([C@H]2CCc3ccc([C@H](CC(=O)O)c4ccc5c(nnn5C)c4C)cc32)Cc2ccccc2O1 (relative stereo) [Example 81, rel-(S)-3-(1,4-Dimethyl-1H-benzo[d][1,2,3]triazol-5-yl)-3-(rel-(S)-3-((R)-2-ethyl-2,3-dihydrobenzo[f][1,4]oxazepin-4(5H)-yl)-2,3-dihydro-1H-inden-5-yl)propanoic Acid]	0.01 to 0.1	
Cc1c(C(CC(=O)O)c2ccc3c(c2)C2C(CCN2C(=O)CC(C)(C)C)C3)ccc2c1nnn2C (stereo not shown) [Example 13, 3-(1,4-Dimethyl-1H-1,2,3-benzotriazol-5-yl)-3-[1-(3,3-dimethylbutanoyl)-1H,2H,3H,3aH,4H,8bH-indeno[1,2-b]pyrrol-7-yl]propanoic Acid]	1 to 10	
Cc1c(C(CC(=O)O)c2ccc3c(c2)C(N2CCOc4ccccc4C2)CC3)ccc2c1nnn2C (stereo not shown) [Example 58, 3-(3-(2,3-Dihydrobenzo[f][1,4]oxazepin-4(5H)-yl)-2,3-dihydro-1H-inden-5-yl)-3-(1,4-dimethyl-1H-benzo[d][1,2,3]triazol-5-yl)propanoic Acid, Formic Acid Salt]	0.1 to 1	
CC[C@@H]1CN([C@@H]2CCc3ccc([C@H](CC(=O)O)c4ccc5c(nnn5C)c4C)cc32)Cc2ccccc2O1 (relative stereo) [Example 82, rel-(S)-3-(1,4-Dimethyl-1H-benzo[d][1,2,3]triazol-5-yl)-3-(rel-(R)-3-((R)-2-ethyl-2,3-dihydrobenzo[f][1,4]oxazepin-4(5H)-yl)-2,3-dihydro-1H-inden-5-yl)propanoic acid]	0.01 to 0.1	
CCCc1cn(CCC(c2ccc3c(c2)C(N2Cc4ccccc4OC(C)(C)C2)CC3)C(C)(C)C(=O)O)nn1 (stereo not shown) [Example 65, 3-(3-(2,2-Dimethyl-2,3-dihydrobenzo[f][1,4]oxazepin-4(5H)-yl)-2,3-dihydro-1H-inden-5-yl)-2,2-dimethyl-5-(4-propyl-1H-1,2,3-triazol-1-yl)pentanoic Acid, Trifluoroacetic Acid Salt]	0.01 to 0.1	
Cc1c(C(CC(=O)O)c2ccc3c(c2)C2C(CCN2C(=O)CC2CCCCC2)C3)ccc2c1nnn2C (stereo not shown) [Example 7, 3-[1-(2-Cyclohexylacetyl)-1H,2H,3H,3aH,4H,8bH-indeno[1,2-b]pyrrol-7-yl]-3-(1,4-dimethyl-1H-1,2,3-benzotriazol-5-yl)propanoic Acid]	1 to 10	
CCn1nnc2c(C)c(C(CC(=O)O)c3ccc4c(c3)C3C(CCN3C(=O)OC(C)(C)C)C4)ccc21 (stereo not shown) [Example 16, 3-(1-(tert-Butoxycarbonyl)-1,2,3,3a,4,8b-hexahydroindeno[1,2-b]pyrrol-7-yl)-3-(1-ethyl-4-methyl-1H-benzo[d][1,2,3]triazol-5-yl)propanoic Acid]	0.1 to 1	
COc1cc(C(CC(=O)O)c2ccc3c(c2)C2C(CCN2C(=O)OC(C)(C)C)C3)cc2nnn(C)c12 (stereo not shown) [Example 15, 3-{1-[(tert-Butoxy)carbonyl]-1H,2H,3H,3aH,4H,8bH-indeno[1,2-b]pyrrol-7-yl}-3-(7-methoxy-1-methyl-1H-1,2,3-benzotriazol-5-yl)propanoic Acid]	0.1 to 1	
Cc1ccc2c(c1)CN(C1CCc3ccc(C(CC(=O)O)c4ccc5c(nnn5C)c4C)cc31)C[C@@H](C)O2 (stereo partly drawn) [Example 47, 3-(1,4-Dimethyl-1H-benzo[d][1,2,3]triazol-5-yl)-3-(3-((R)-2,7-dimethyl-2,3-dihydrobenzo[f][1,4]oxazepin-4(5H)-yl)-2,3-dihydro-1H-inden-5-yl)propanoic Acid, Formic Acid Salt]	0.01 to 0.1	
